Reference: US9512180B2, “Compstatin analogs” (THE REGENTS OF THE UNIVERSITY OF CALIFORNIA, priority 2012, dated 2016)
Bridge positions count the residues as written; N and C are the ends. Square brackets hold non-standard residues; d marks the D form. Peptide text beside a SMILES is read from it. Trp(1-Me) = Cn1cc(C[C@H](N)C(=O)O)c2ccccc21

Experiments:
[1] = test system: complement alternative pathway (AP); assay: C3b ELISA (inhibition of C3b formation); type: biochemical, human; conditions: for IC50: Table 9, means from three independent experiments, read-out: IC50, C3b ELISA
Method: Inhibition of the complement alternative pathway (AP) by compstatin family peptides was assayed by ELISA. Peptides were dissolved in phosphate buffered saline (PBS, 150 mM). Initial peptide concentrations were calculated using the Beer-Lambert Law with an extinction coefficient of 5,500 (1/M·cm) for Trp and 5,470 (1/M·cm) for methylated-Trp present in the sequence, at 280 nm. Nunc Maxisorp 96-well plates were coated with 1 μg lipopolysaccharides (LPS) from Salmonella enteriditis for ˜16 h at room temperature. Plates were washed three times with PBS/0.05% Tween-20 (PBS-T) between each step. Plates were blocked with 4% bovine serum albumin (BSA) in PBS-T for 1 h at 37° C. Serial peptide dilutions were performed in 96-well plates, using gelatin veronal-buffered saline with 5 mM MgCl2 and 10 mM EGTA (GVBS-MgEGTA). Normal human serum (Complement Technology Inc., Tyler, Tex., USA) was diluted in GVBS-MgEGTA and mixed with compstatin serial dilutions to a final concentration of 30%. Serum diluted in GVBS-MgEGTA and GVBS (containing 20 mM EDTA) were used as positive and negative controls for complement activation, respectively. Dilutions were preincubated for 15 minutes at room temperature, transferred to ELISA plates, and incubated for 1 h at 37° C. Generation of C3b and C5b-9 were assayed using horseradish peroxidase (HRP)-conjugated anti-C3 (MP Biomedicals, Solon, Ohio, USA) and anti-05b-9 aEll (Abcam, Cambridge, Mass., USA), respectively. Plates were washed and incubated with either anti-C3-HRP (1:5000 in 1% BSA/PBS-T) or anti-05b-9 (1:1000 in 1% BSA/PBS-T) for 1 h at 37° C. For C5b-9 detection, primary antibody incubation was followed by incubation with anti-mouse-HRP (BioRad, Hercules, Calif., USA) for 1 h at 37° C. (1:5000 in 1% BSA/PBS-T). Bound C3b and C5b-9 were quantified using a 3,3′,5,5′-tetramethylbenzidine substrate solution containing urea hydrogen peroxide in 0.11 M sodium acetate buffer, followed by a 1 N H2SO4 acid stop. Plates were measured spectrophotometrically at 450 nm. Percent inhibition of C3b and C5b-9 deposition was plotted against peptide concentration and the data was fitted to a logistic dose response curve with Prism software (GraphPad, San Diego, Calif., USA) to determine IC50 values.
In all assays, MgEGTA was used to chelate Ca′ ions required for classical/lectin pathway complement activation, while providing Mg′ necessary for AP activation. ELISAs allow for direct detection of C3b and C5b-9 formed during AP activation, while erythrocyte lysis assays provide a functional assessment of AP-mediated hemolysis in serum. […] Table 9 summarizes the IC50 values derived from the three different assays. […] The relative potencies of the peptides, based on the measured ICH values, are consistent across all three assays (Peptide III˜Peptide VI˜Peptide IX>Peptide I>Parent). Based on the assay conditions used in this study, peptides inhibited C5b-9 formation with moderately better efficacy than formation of C3b, while slightly higher concentrations were necessary to inhibit AP-mediated hemolysis.

[2] = RP-HPLC relative lipophilicity (retention factor k, log k); type: physicochemical
Method: The effect of the hydrophobic content of compstatin family peptides on relative lipophilicity was evaluated using RP-HPLC, a widely applied indirect technique for the determination of the lipophilicity of drugs and drug candidates. The determination of log P by RP-HPLC is based on the measurement of the retention factor k between the mobile and stationary phase (Eq. 7) of the investigated compound:
[formula] where tR is the retention time of the analyte, and to is the elution time of an unretained analyte. The logarithm of the retention factor is linearly correlated with the logarithm of the partition coefficient log P=a log k+b (8). where a and b are the slope and intercept of the linear equation.
The determination of log P values requires calibration using structurally related compounds, and is beyond the scope of this study. Instead the log k values were used to indicate the relative lipophilicities of this compstatin peptide family.
HPLC experiments were carried out using an Agilent 1100 HPLC with UV detection at 280 nm at 25° C. Separations were performed on a Waters (Milford, Mass.) 4.6×150 mm XTerra MS C18 column with 5 μm pore size using a mobile phase of A: 10 mM phosphate buffer pH=7.4 containing 1% TFA, and B: acetonitrile. The purity of the peptides was verified by an isocratic separation at 28% B and a flow rate of 1 mL/min. Solutions containing 0.6-0.8 mg/mL of Peptides I, III, VI, IX and the parent peptide were prepared in methanol and diluted 5-times with the eluent. All five peptides eluted as single peaks indicating a high degree of purity (FIG. 10).
For the determination of the relative lipophilicities a solution containing each of the peptides was prepared from the stock solutions and injected in triplicate. […] A 0.5 mg/mL solution of aspartic acid was used as the unretained analyte for the determination of the column dead time, 1.439±0.003 min.
RP-HPLC was used to measure the hydrophobicity/lipophilicity content of the compstatin family peptides. The retention of a compound in RP-HPLC depends on its hydrophobicity/lipophilicity content, and is correlated to the octanol-water partition ratio. Lipophilicity describes the partitioning of a compound between an aqueous and a lipidic/hydrophobic environment, and is an essential physicochemical parameter to determine pharmacokinetic behavior according to ADME (absorption, distribution, metabolism, excretion) characterization. Because the compstatin family peptides consist of a hydrophobic and a polar surface, their ability to bind to the hydrophobic cavity of C3, while maintaining a solvent-exposed face has been evaluated here as lipohilicity content, measured by RP-HPLC. In addition, lipohilicity is inversely proportional to aqueous solubility, and therefore can be used to estimate solubility of the peptides in their free (unbound) state.

Structure (SMILES)	inhibition less than other peptides ([1]; C3b inhibition in ELISA, versus Peptides I, III, VI, IX)	IC50 [1]	Retention factor (k) [2]	logk [2]	relative lipophilicity ([2]; isocratic 24% acetonitrile, pH=7.4 phosphate buffer)
CC[C@H](C)[C@H](N)C(=O)N[C@H]1CSSC[C@@H](C(=O)N[C@H](C(N)=O)[C@@H](C)O)NC(=O)[C@H](CCCN=C(N)N)NC(=O)[C@H](Cc2cnc[nH]2)NC(=O)[C@H](Cc2cnc[nH]2)NC(=O)CNC(=O)[C@H](Cc2c[nH]c3ccccc23)NC(=O)[C@H](CC(=O)O)NC(=O)[C@H](CCC(N)=O)NC(=O)[C@H](C(C)C)NC(=O)[C@H](C(C)C)NC1=O [Parent, ICV VQDWGH HRCT-NH2, reference compound]	10- to 15 fold	35 µM	2.472	0.393	least lipophilic
CC(=O)N[C@@H](CCCNC(=N)N)C(=O)N[C@H]1CSSC[C@@H](C(=O)N[C@H](C(N)=O)[C@@H](C)O)NC(=O)[C@H](CCCNC(=N)N)NC(=O)[C@H](Cc2c[nH]cn2)NC(=O)[C@H](C)NC(=O)CNC(=O)[C@H](Cc2c[nH]c3ccccc23)NC(=O)[C@H](CC(=O)O)NC(=O)[C@H](CCC(N)=O)NC(=O)[C@H](Cc2c[nH]c3ccccc23)NC(=O)[C@H](C(C)C)NC1=O [Peptide I, Ac- RCV WQDWGA HRCT-NH2] (Ac-RCVWQDWGAHRCT-NH2; disulfide 2-12)		2.58 µM	2.828	0.451	
CC(=O)N[C@@H](CCCNC(=N)N)C(=O)N[C@H]1CSSC[C@@H](C(=O)N[C@H](C(N)=O)[C@@H](C)O)NC(=O)[C@H](CCCNC(=N)N)NC(=O)[C@H](Cc2c[nH]cn2)NC(=O)[C@H](C)NC(=O)CNC(=O)[C@H](Cc2c[nH]c3ccccc23)NC(=O)[C@H](CC(=O)O)NC(=O)[C@H](CCC(N)=O)NC(=O)[C@H](Cc2cn(C)c3ccccc23)NC(=O)[C@H](C(C)C)NC1=O [Peptide III, Ac- RCV meWQDWGA HRCT-NH2] (Ac-RCV[Trp(1-Me)]QDWGAHRCT-NH2; disulfide 2-12)		1.42 µM	6.165	0.790	
CC[C@H](C)[C@H](NC(=O)[C@H](CO)NC(=O)[C@H](CCCNC(=N)N)NC(C)=O)C(=O)N[C@H]1CSSC[C@@H](C(=O)N[C@H](C(N)=O)[C@@H](C)O)NC(=O)[C@H](CCCNC(=N)N)NC(=O)[C@H](Cc2c[nH]cn2)NC(=O)[C@H](C)NC(=O)CNC(=O)[C@H](Cc2c[nH]c3ccccc23)NC(=O)[C@H](CC(=O)O)NC(=O)[C@H](CCC(N)=O)NC(=O)[C@H](Cc2cn(C)c3ccccc23)NC(=O)[C@H](C(C)C)NC1=O [Peptide VI, Ac-RS-ICV meWQDWGA HRCT-NH2]		1.74 µM	9.913	0.996	
